Assay results published in article PMC6199744, “Development of Chemical Proteomics for the Folateome and Analysis of the Kinetoplastid Folateome” (ACS Infectious Diseases, 2018).
Like-named read-outs stand apart in the source and are kept apart here.

Experiments:
Assay type in all cases: binding
[1] = biological target: T1, HeLa cell extract proteins (Homo sapiens, UniProt O75323); settings: protein GBAS; HeLa
T1 construct: endogenous in cells; host or cells: HeLa cell extract
T1 sequence (O75323 24-286): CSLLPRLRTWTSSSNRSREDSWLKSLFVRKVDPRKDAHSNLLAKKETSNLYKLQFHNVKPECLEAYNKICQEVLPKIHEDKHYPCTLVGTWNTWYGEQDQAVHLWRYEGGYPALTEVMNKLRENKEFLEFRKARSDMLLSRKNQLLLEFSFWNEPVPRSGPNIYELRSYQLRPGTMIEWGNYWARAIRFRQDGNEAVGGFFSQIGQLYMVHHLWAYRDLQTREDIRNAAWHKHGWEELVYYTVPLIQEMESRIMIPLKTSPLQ

[2] = biological target: T2, HeLa cell extract proteins (Homo sapiens, UniProt P25786); settings: protein PSMA1; HeLa
T2 construct: endogenous in cells; host or cells: HeLa cell extract
T2 sequence (P25786 whole entry): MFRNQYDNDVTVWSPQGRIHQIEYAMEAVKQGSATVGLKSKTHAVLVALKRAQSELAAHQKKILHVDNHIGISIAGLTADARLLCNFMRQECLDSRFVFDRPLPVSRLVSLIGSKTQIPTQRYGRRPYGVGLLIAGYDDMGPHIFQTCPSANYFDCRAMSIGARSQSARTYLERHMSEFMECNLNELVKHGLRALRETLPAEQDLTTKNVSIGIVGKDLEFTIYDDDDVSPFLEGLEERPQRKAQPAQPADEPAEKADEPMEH

[3] = biological target: T3, HeLa cell extract proteins (Homo sapiens, UniProt P46109); settings: HeLa; protein CRKL
T3 construct: endogenous in cells; host or cells: HeLa cell extract
T3 sequence (P46109 whole entry): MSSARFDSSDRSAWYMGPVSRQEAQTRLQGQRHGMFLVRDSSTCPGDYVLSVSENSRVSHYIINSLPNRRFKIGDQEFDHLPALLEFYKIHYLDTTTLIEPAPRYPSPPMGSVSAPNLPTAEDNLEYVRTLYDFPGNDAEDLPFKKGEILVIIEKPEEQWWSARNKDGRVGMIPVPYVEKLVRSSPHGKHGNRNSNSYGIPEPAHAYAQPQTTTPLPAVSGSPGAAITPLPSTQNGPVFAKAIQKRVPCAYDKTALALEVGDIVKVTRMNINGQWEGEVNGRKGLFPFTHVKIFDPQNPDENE

[4] = biological target: T4, HeLa cell extract proteins (Homo sapiens, UniProt Q16795); settings: captured protein NDUFA9; HeLa
T4 construct: endogenous in cells; host or cells: HeLa cell extract
T4 sequence (Q16795 36-377): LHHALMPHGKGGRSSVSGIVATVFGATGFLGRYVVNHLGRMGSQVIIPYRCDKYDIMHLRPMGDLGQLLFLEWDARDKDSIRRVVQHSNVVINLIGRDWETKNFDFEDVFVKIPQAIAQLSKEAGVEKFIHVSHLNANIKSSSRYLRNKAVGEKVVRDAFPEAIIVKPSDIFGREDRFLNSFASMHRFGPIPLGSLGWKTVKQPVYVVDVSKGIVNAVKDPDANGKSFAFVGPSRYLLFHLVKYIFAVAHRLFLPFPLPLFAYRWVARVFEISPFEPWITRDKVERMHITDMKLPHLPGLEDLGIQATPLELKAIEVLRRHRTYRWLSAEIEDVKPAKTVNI

[5] = biological target: T5, HeLa cell extract proteins (Homo sapiens, UniProt Q9BSJ2); settings: captured protein TUBGCP2; HeLa
T5 construct: endogenous in cells; host or cells: HeLa cell extract
T5 sequence (Q9BSJ2 whole entry): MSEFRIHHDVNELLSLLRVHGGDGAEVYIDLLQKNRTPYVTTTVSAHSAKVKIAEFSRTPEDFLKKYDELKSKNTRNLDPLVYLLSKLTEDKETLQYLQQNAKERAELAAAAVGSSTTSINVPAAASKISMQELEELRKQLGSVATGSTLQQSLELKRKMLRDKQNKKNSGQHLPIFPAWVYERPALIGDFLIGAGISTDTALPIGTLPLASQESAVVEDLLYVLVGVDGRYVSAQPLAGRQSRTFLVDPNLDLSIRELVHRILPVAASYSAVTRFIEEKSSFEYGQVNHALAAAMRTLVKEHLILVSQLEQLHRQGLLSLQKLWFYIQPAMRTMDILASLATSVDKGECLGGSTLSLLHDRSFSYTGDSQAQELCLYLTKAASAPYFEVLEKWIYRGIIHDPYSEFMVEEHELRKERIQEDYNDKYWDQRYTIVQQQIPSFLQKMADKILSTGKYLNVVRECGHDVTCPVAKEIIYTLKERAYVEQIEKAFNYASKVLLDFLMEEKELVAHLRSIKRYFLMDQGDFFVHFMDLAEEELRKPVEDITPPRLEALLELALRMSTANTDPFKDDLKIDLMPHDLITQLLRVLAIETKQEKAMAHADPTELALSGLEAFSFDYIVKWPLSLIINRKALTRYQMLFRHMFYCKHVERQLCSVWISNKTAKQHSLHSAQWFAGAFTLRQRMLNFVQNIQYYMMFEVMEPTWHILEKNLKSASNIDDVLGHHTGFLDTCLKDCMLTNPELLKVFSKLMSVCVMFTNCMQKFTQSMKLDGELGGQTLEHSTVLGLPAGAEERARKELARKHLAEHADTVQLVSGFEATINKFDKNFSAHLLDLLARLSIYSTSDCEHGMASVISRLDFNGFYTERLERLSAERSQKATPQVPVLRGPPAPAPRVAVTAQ

[6] = biological target: T6, HeLa cell extract proteins (Homo sapiens, UniProt O75131)
T6 construct: endogenous in cells; host or cells: HeLa cell extract
T6 sequence (O75131 whole entry): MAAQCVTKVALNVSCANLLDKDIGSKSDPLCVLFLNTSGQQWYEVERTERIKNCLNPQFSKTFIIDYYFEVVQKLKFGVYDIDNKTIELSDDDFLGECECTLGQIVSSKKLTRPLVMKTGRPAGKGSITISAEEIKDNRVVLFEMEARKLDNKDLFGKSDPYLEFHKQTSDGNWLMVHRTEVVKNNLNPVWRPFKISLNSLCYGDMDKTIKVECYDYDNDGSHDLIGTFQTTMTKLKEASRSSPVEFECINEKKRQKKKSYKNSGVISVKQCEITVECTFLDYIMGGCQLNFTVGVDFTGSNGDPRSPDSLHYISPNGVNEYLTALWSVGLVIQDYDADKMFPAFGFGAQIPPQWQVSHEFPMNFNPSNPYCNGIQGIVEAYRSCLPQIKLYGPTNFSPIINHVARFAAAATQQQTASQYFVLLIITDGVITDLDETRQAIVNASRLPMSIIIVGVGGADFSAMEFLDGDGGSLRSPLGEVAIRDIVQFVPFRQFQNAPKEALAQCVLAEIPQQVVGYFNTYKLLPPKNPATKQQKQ

[7] = biological target: T7, HeLa cell extract proteins (Homo sapiens, UniProt O75718)
T7 construct: endogenous in cells; host or cells: HeLa cell extract
T7 sequence (O75718 27-401): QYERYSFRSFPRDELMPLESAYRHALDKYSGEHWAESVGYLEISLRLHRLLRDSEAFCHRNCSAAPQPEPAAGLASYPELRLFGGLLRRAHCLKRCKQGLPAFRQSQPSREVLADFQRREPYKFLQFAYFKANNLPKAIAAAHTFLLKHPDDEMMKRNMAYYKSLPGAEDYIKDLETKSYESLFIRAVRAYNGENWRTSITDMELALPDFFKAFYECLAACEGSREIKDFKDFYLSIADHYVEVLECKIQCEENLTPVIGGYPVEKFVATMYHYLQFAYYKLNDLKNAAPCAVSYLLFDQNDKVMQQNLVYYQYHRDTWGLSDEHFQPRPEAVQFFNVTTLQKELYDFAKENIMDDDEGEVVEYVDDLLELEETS

[8] = biological target: T8, HeLa cell extract proteins (Homo sapiens, UniProt P13797)
T8 construct: endogenous in cells; host or cells: HeLa cell extract
T8 sequence (P13797 1-630): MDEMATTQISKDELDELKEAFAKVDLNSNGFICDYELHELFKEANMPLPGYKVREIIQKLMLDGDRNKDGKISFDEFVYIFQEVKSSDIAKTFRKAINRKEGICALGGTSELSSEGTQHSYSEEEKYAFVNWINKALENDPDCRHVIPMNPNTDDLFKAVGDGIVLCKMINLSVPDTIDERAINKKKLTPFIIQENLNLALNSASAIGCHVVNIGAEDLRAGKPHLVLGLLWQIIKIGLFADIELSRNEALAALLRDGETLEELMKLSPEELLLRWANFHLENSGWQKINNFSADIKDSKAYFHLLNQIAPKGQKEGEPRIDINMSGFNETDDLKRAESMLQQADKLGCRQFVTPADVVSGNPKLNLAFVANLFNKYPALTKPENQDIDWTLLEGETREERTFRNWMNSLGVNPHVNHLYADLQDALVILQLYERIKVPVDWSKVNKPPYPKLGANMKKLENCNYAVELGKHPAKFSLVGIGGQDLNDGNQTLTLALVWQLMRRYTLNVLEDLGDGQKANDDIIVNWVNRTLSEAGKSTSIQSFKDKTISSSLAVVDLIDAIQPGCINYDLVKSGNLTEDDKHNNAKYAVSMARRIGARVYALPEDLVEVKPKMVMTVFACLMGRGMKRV

[9] = biological target: T9, HeLa cell extract proteins (Homo sapiens, UniProt P24390)
T9 construct: endogenous in cells; host or cells: HeLa cell extract
T9 sequence (P24390 1-212): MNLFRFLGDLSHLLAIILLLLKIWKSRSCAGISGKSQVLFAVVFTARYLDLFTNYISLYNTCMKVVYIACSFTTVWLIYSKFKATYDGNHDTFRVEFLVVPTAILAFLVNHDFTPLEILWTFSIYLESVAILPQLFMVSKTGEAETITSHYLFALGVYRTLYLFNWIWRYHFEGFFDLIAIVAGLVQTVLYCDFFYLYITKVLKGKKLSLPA

[10] = biological target: T10, HeLa cell extract proteins (Homo sapiens, UniProt Q01469)
T10 construct: endogenous in cells; host or cells: HeLa cell extract
T10 sequence (Q01469 whole entry): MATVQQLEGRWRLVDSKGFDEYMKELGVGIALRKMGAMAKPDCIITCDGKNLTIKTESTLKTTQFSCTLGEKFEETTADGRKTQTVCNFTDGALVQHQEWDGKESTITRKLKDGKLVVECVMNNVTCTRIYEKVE

[11] = biological target: T11, HeLa cell extract proteins (Homo sapiens, UniProt Q15370)
T11 construct: endogenous in cells; host or cells: HeLa cell extract
T11 sequence (Q15370 whole entry): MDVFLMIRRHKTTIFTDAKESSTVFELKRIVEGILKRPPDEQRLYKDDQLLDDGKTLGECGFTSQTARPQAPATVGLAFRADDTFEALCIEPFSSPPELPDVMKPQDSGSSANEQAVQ

[12] = biological target: T12, HeLa cell extract proteins (Homo sapiens, UniProt Q9UNM6)
T12 construct: endogenous in cells; host or cells: HeLa cell extract
T12 sequence (Q9UNM6 1-376): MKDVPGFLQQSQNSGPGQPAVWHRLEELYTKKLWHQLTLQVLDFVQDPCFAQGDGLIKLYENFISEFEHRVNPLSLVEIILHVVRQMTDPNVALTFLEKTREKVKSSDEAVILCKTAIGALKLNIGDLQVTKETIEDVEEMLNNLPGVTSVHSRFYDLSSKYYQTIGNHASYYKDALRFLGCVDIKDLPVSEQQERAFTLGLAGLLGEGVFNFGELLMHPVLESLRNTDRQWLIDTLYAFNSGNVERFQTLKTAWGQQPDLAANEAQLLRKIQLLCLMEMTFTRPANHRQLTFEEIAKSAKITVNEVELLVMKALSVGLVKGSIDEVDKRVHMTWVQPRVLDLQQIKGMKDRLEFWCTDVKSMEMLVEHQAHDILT

[13] = biological target: T13, HeLa cell extract proteins (Homo sapiens, UniProt Q9UPT8)
T13 construct: endogenous in cells; host or cells: HeLa cell extract
T13 sequence (Q9UPT8 whole entry): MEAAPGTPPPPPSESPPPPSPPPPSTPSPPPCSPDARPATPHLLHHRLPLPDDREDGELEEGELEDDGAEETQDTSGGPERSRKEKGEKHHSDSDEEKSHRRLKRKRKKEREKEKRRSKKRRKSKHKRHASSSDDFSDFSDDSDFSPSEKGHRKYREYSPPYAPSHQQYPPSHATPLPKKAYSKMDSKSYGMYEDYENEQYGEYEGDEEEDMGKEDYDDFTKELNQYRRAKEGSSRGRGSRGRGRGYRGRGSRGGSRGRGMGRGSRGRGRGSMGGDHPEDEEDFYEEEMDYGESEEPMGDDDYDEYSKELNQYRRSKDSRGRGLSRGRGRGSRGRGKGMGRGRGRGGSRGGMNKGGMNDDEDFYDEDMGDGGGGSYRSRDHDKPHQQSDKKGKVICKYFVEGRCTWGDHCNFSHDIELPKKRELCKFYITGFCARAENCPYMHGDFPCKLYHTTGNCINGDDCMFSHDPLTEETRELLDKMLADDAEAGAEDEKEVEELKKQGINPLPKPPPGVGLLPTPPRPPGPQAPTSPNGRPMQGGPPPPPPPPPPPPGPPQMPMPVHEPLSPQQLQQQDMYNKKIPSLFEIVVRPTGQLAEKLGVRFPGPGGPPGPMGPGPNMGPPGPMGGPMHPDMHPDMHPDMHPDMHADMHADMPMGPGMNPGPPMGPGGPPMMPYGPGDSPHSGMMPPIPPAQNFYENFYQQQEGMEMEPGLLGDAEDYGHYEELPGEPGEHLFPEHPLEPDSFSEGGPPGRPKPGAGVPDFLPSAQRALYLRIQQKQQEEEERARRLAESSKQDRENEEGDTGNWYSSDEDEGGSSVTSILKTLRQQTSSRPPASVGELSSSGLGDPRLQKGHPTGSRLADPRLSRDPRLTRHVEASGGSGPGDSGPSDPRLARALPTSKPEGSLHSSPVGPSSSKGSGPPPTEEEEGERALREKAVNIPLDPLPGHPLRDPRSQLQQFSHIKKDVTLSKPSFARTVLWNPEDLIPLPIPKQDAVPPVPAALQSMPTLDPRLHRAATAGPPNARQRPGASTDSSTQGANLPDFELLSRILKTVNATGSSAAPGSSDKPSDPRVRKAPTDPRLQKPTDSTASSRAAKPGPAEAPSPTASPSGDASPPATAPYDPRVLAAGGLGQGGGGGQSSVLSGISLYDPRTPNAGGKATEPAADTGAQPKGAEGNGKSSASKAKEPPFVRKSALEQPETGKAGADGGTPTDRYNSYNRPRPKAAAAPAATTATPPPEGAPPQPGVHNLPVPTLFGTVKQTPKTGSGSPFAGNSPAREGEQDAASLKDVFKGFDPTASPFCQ

[14] = biological target: T14, HeLa cell extract proteins (Homo sapiens, UniProt Q9Y6G9)
T14 construct: endogenous in cells; host or cells: HeLa cell extract
T14 sequence (Q9Y6G9 whole entry): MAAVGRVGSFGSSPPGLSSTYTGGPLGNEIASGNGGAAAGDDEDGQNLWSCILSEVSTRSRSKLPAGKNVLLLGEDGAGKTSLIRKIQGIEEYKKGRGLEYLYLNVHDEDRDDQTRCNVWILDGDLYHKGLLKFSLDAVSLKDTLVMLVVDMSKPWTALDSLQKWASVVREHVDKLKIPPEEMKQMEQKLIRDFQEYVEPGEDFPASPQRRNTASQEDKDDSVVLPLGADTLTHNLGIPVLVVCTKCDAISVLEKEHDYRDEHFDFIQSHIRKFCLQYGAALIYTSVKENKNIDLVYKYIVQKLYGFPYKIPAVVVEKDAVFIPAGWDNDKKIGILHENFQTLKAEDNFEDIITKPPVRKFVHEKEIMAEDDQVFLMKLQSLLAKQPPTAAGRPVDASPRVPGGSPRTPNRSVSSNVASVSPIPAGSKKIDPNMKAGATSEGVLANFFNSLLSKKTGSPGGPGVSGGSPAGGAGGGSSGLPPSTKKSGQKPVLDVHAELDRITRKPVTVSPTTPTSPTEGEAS

| SMILES | fold changes relative to vehicle control [1] | fold changes relative to vehicle control [2] | fold changes relative to vehicle control [3] | fold changes relative to vehicle control [4] | fold changes relative to vehicle control [5] | fold changes relative to vehicle control ([6]; HeLa, protein CPNE3) | fold changes relative to vehicle control ([7]; protein CRTAP, HeLa) | fold changes relative to vehicle control ([8]; HeLa, protein PLS3) | fold changes relative to vehicle control ([9]; HeLa, protein KDELR1) | fold changes relative to vehicle control ([10]; protein FABP5, HeLa) | fold changes relative to vehicle control ([11]; protein TCEB2, HeLa) | fold changes relative to vehicle control ([12]; protein PSMD13, HeLa) | fold changes relative to vehicle control ([13]; HeLa, protein ZC3H4) | fold changes relative to vehicle control ([14]; HeLa, protein DYNC1LI1) | other results |
| --- | --- | --- | --- | --- | --- | --- | --- | --- | --- | --- | --- | --- | --- | --- | --- |
| Nc1nc2cccc(-c3ccccc3)c2n1Cc1ccc(Cl)c(Cl)c1 [compound 3] | 1.01 | 0.97 | 1.15 | 1.04 | 0.99 | – | – | – | – | – | – | – | – | – | – |
| NCCOCCOCC(=O)Nc1nc2ncc(CNc3ccc(C(=O)NC(CCC(=O)O)C(=O)O)cc3)nc2c(=O)[nH]1 (stereo not drawn) [compound 6] | – | – | – | – | – | 0.91 | 0.86 | 1.31 | 2.19 | 1.3 | 1.43 | 1.02 | 1.1 | 0.9 | – |
| Nc1nc2[nH]cc(CCc3ccc(C(=O)N[C@@H](CCC(=O)O)C(=O)O)cc3)c2c(=O)[nH]1 [PTX, pemetrexed] | – | – | – | – | – | – | – | – | – | – | – | – | – | – | fold changes relative to vehicle control [6]: 0.77; fold changes relative to vehicle control [7]: 0.82; fold changes relative to vehicle control [8]: 1.18; fold changes relative to vehicle control [9]: 1.16; fold changes relative to vehicle control [10]: 1.45; fold changes relative to vehicle control [11]: 1.02; fold changes relative to vehicle control [12]: 0.88; fold changes relative to vehicle control [13]: 1.06; fold changes relative to vehicle control [14]: 0.81 |
| Nc1nc2c(c(=O)[nH]1)N(C=O)C(CNc1ccc(C(=O)N[C@@H](CCC(=O)O)C(=O)O)cc1)CN2 (stereo partly drawn) [LEU, leucovorin] | – | – | – | – | – | 1.23 | 0.85 | 0.93 | 1.06 | 1 | 0.9 | 0.95 | 0.99 | 0.9 | – |
| CCCCCCOc1ccc(Cc2cnc(N)nc2N)cc1 [compound 1] | 1.26 | 1.2 | 0.82 | 1.01 | 0.76 | – | – | – | – | – | – | – | – | – | – |
| NCCCNc1ccc(C(=O)NC(CCC(=O)O)C(=O)O)cc1 (stereo not drawn) [compound 7] | – | – | – | – | – | 0.85 | 0.91 | 1 | 1.25 | 1.1 | 1.1 | 0.86 | 1.01 | 0.88 | – |
| CCCCCCOc1cccc(Cc2cnc(N)nc2N)c1 [compound 2] | 1.29 | 1.36 | 0.96 | 0.87 | 1.01 | – | – | – | – | – | – | – | – | – | – |
